From ChEMBL document CHEMBL1147922, “Tetrahydroindazole inhibitors of bacterial type II topoisomerases. Part 2: SAR development and potency against multidrug-resistant strains” (Bioorg Med Chem Lett, 2007)
Converted amounts (≈) assume the structure as drawn.

Assays:
Staphylococcus aureus [1] = assay: Antibacterial activity against Staphylococcus aureus ATCC 13709; format: functional
Escherichia coli = assay: Antibacterial activity against Escherichia coli KL16; format: functional
Streptococcus pneumoniae = assay: Antibacterial activity against Streptococcus pneumoniae ATCC 49619; format: functional
[2] = Inhibition of bacterial DNA gyrase
[3] = Inhibition of bacterial DNA topoisomerase 4
Staphylococcus aureus [4] = assay: Antibacterial activity against ciprofloxacin resistant methicillin resistant Staphylococcus aureus OC4159; format: functional
Staphylococcus aureus [5] = assay: Antibacterial activity against ciprofloxacin resistant methicillin resistant Staphylococcus aureus OC3946; format: functional
Staphylococcus aureus [6] = assay: Antibacterial activity against ciprofloxacin resistant methicillin resistant Staphylococcus aureus OC5273; format: functional
Staphylococcus aureus [7] = assay: Antibacterial activity against quinolone susceptible methicillin resistant Staphylococcus aureus OC2878; format: functional
Staphylococcus aureus [8] = assay: Antibacterial activity against ciprofloxacin resistant methicillin resistant Staphylococcus aureus OC4222; format: functional

| SMILES | MIC (Staphylococcus aureus [1]) [µg/mL] | MIC (Escherichia coli) [µg/mL] | MIC (Streptococcus pneumoniae) [µg/mL] | IC50 [2] [µg/mL] | IC50 [3] [µg/mL] | MIC (Staphylococcus aureus [4]) [µg/mL] | MIC (Staphylococcus aureus [5]) [µg/mL] | MIC (Staphylococcus aureus [6]) [µg/mL] | MIC (Staphylococcus aureus [7]) [µg/mL] | MIC (Staphylococcus aureus [8]) [µg/mL] |
| --- | --- | --- | --- | --- | --- | --- | --- | --- | --- | --- |
| CCOC(=O)c1cc2c(cc1C(=O)NC1CCc3nn(-c4ccnc5ccc(OC)cc45)cc3C1)NC(=O)CS2 (stereo not drawn) | 2 (≈ 3.59 µM) | > 16 | > 16 | – | – | – | – | – | – | – |
| COc1ccc2nccc(-n3cc4c(n3)CCC(NC/C=C/c3ccccc3)C4)c2c1 (stereo not drawn) | 0.5 (≈ 1.22 µM) | – | 1 (≈ 2.44 µM) | 4 (≈ 9.74 µM) | – | 0.5 (≈ 1.22 µM) | 0.5 (≈ 1.22 µM) | 1 (≈ 2.44 µM) | 0.5 (≈ 1.22 µM) | 0.25 (≈ 0.609 µM) |
| COc1ccc2nccc(-n3cc4c(n3)CCC(NC(=O)c3ccc(C)c([N+](=O)[O-])c3)C4)c2c1 (stereo not drawn) | 0.25 (≈ 0.546 µM) | – | 4 (≈ 8.74 µM) | > 16 | – | – | – | – | – | – |
| COc1ccc2nccc(-n3cc4c(n3)CCC(NC(=O)c3cc5c(cc3C)SCC(=O)N5)C4)c2c1 (stereo not drawn) | 0.5 (≈ 1 µM) | 8 (≈ 16 µM) | 16 (≈ 32 µM) | – | – | – | – | – | – | – |
| COc1ccc2nccc(-n3cc4c(n3)CCC(NCc3ccc5c(c3)OCO5)C4)c2n1 (stereo not drawn) | 0.5 (≈ 1.16 µM) | 32 (≈ 74.5 µM) | 2 (≈ 4.66 µM) | 0.25 (≈ 0.582 µM) | 0.25 (≈ 0.582 µM) | – | – | – | – | – |
| COc1ccc2nccc(-n3cc4c(n3)CCC(NCc3ccc5c(n3)NC(=O)CO5)C4)c2n1 (stereo not drawn) | 0.25 (≈ 0.546 µM) | 2 (≈ 4.37 µM) | 2 (≈ 4.37 µM) | < 0.125 | 0.016 (≈ 0.035 µM) | – | – | – | – | – |
| COc1ccc2nccc(-n3cc4c(n3)CCC(NC/C=C/c3ccccc3)C4)c2n1 (stereo not drawn) | 0.06 (≈ 0.146 µM) | – | < 0.125 | 0.12 (≈ 0.292 µM) | < 0.015 | 0.062 (≈ 0.151 µM) | 0.062 (≈ 0.151 µM) | 0.125 (≈ 0.304 µM) | 0.125 (≈ 0.304 µM) | 0.062 (≈ 0.151 µM) |
| O=C(O)c1cn(C2CC2)c2cc(N3CCNCC3)c(F)cc2c1=O [CIPROFLOXACIN] | 0.25 (≈ 0.754 µM) | – | – | – | – | – | – | – | – | – |
| CCn1cc(C(=O)O)c(=O)c2cc(F)c(N3CCNCC3)cc21 [NORFLOXACIN] | 1 (≈ 3.13 µM) | – | – | – | – | > 128 | 128 (≈ 401 µM) | > 128 | 1 (≈ 3.13 µM) | > 128 |
| C[C@@H]1CN(c2c(F)c(N)c3c(=O)c(C(=O)O)cn(C4CC4)c3c2F)C[C@H](C)N1 [SPARFLOXACIN] | 0.062 (≈ 0.158 µM) | – | – | – | – | 16 (≈ 40.8 µM) | 4 (≈ 10.2 µM) | 16 (≈ 40.8 µM) | 0.062 (≈ 0.158 µM) | 8 (≈ 20.4 µM) |

Further lines, with some results ahead:

| MIC (Staphylococcus aureus [1]) [µg/mL] | MIC (Escherichia coli) [µg/mL] | MIC (Streptococcus pneumoniae) [µg/mL] | IC50 [2] [µg/mL] | IC50 [3] [µg/mL] | SMILES | MIC (Staphylococcus aureus [4]) [µg/mL] | MIC (Staphylococcus aureus [5]) [µg/mL] | MIC (Staphylococcus aureus [6]) [µg/mL] | MIC (Staphylococcus aureus [7]) [µg/mL] | MIC (Staphylococcus aureus [8]) [µg/mL] |
| --- | --- | --- | --- | --- | --- | --- | --- | --- | --- | --- |
| 0.25 (≈ 0.499 µM) | > 16 | > 16 | – | – | COc1ccc2nccc(-n3cc4c(n3)CCC(NC(=O)c3cc5c(cc3C)SCC(=O)N5)C4)c2n1 (stereo not drawn) | – | – | – | – | – |
| 1 (≈ 1.89 µM) | > 16 | > 16 | – | – | COc1ccc2nccc(-n3cc4c(n3)CCC(NC(=O)c3cc5c(cc3C(=O)O)SCC(=O)N5)C4)c2c1 (stereo not drawn) | – | – | – | – | – |
| 0.25 (≈ 0.588 µM) | – | 2 (≈ 4.7 µM) | 8 (≈ 18.8 µM) | – | COc1ccc2nccc(-n3cc4c(n3)CCC(NC(=O)/C=C/c3ccccc3)C4)c2n1 (stereo not drawn) | – | – | – | – | – |
| 1 (≈ 2.36 µM) | – | 4 (≈ 9.42 µM) | 16 (≈ 37.7 µM) | 0.5 (≈ 1.18 µM) | COc1ccc2nccc(-n3cc4c(n3)CCC(NC(=O)/C=C/c3ccccc3)C4)c2c1 (stereo not drawn) | – | – | – | – | – |
| 0.25 (≈ 0.605 µM) | – | < 0.125 | 0.8 (≈ 1.93 µM) | – | COc1ccc2nccc(-n3cc4c(n3)CCC(NCCCc3ccccc3)C4)c2n1 (stereo not drawn) | – | – | – | – | – |
| 0.25 (≈ 0.515 µM) | – | 8 (≈ 16.5 µM) | – | – | COc1ccc2nccc(-n3cc4c(n3)CCC(NC(=O)c3cc(F)c(Cl)cc3Cl)C4)c2c1 (stereo not drawn) | – | – | – | – | – |
| 0.5 (≈ 0.895 µM) | > 16 | > 16 | – | – | CCOC(=O)c1cc2c(cc1C(=O)NC1CCc3nn(-c4ccnc5ccc(OC)nc45)cc3C1)NC(=O)CS2 (stereo not drawn) | – | – | – | – | – |
| 0.5 (≈ 0.942 µM) | > 16 | 16 (≈ 30.2 µM) | – | – | COc1ccc2nccc(-n3cc4c(n3)CCC(NC(=O)c3cc5c(cc3C(=O)O)SCC(=O)N5)C4)c2n1 (stereo not drawn) | – | – | – | – | – |
| 0.25 (≈ 0.545 µM) | – | 8 (≈ 17.4 µM) | – | – | COc1ccc2nccc(-n3cc4c(n3)CCC(NC(=O)c3ccc(C)c([N+](=O)[O-])c3)C4)c2n1 (stereo not drawn) | – | – | – | – | – |
| 0.125 (≈ 0.239 µM) | > 128 | 4 (≈ 7.65 µM) | 1 (≈ 1.91 µM) | – | COc1ccc2nccc(-n3cc4c(n3)CCC(NC(=O)c3c(F)cc5c(c3F)NC(=O)CS5)C4)c2n1 (stereo not drawn) | – | – | – | – | – |
| 0.125 (≈ 0.221 µM) | 2 (≈ 3.54 µM) | 2 (≈ 3.54 µM) | 0.5 (≈ 0.886 µM) | 0.125 (≈ 0.221 µM) | COc1ccc2nccc(-n3cc4c(n3)CCC(NC(=O)c3cc5c(cc3Br)SCC(=O)N5)C4)c2c1 (stereo not drawn) | – | – | – | – | – |
| 0.125 (≈ 0.225 µM) | 4 (≈ 7.21 µM) | 8 (≈ 14.4 µM) | 0.25 (≈ 0.451 µM) | – | COc1ccc2nccc(-n3cc4c(n3)CCC(NC(=O)c3cc5c(cc3C(F)(F)F)SCC(=O)N5)C4)c2n1 (stereo not drawn) | – | – | – | – | – |
| 0.125 (≈ 0.266 µM) | 2 (≈ 4.26 µM) | 4 (≈ 8.52 µM) | 0.25 (≈ 0.532 µM) | 0.5 (≈ 1.06 µM) | COc1ccc2nccc(-n3cc4c(n3)CCC(NC(=O)c3ccc5c(c3)NC(=O)CO5)C4)c2c1 (stereo not drawn) | – | – | – | – | – |
